In patent publication US11731969B2, “Crystal polymorph of 8-bromo-2-(1-methylpiperidin-4-ylamino)-4-(4-phenoxyphenylamino)pyrido[4,3-d]pyrimidin-5(6H)-one hydrochloride and method for preparing same” (OSCOTEC INC., priority 2018, dated 2023):
Structures can show the parent of a compound that is named as a salt.

Columns and labels:
[1] = Evaluation of solubility in distilled water (HPLC); format: physicochemical; settings: for Solubility: distilled water, 20 mg/ml added, stirred 2 hours at room temperature (25° C.), filtered, HPLC, hydrochloride; for Solubility as compared with Compound 1 (in words): summary of Table 1
Method: Distilled water was added to 8-bromo-2-(1-methylpiperidin-4-ylamino)-4-(4-phenoxyphenylamino)pyrido[4,3-d]pyrimidin-5(6H)-one hydrochloride (Compound 1) represented by the above Formula 1 and the crystalline form (VI) and the crystalline form (X) obtained in the Examples such that the concentration was 20 mg/ml, which was stirred for 2 hours at room temperature (25° C.) and then filtered. Thereafter, it was diluted 200 times with acetonitrile of a concentration of 50%.

[2] = Evaluation of hygroscopicity by dynamic moisture adsorption analyzer (DVS); format: physicochemical; settings: for Hygroscopicity (%): 25° C., DVS, hydrochloride
Method: 8-bromo-2-(1-methylpiperidin-4-ylamino)-4-(4-phenoxyphenylamino)pyrido[4,3-d]pyrimidin-5(6H)-one hydrochloride (Compound 1) represented by the above Formula 1 and the crystalline form (VI) obtained in the Examples were measured for hygroscopicity in a relative humidity range of 0% to 90% at 25° C. using a dynamic moisture adsorption analyzer (DVS).

[3] = test system: protein kinase; settings: see Korean Laid-open Patent Publication No. 2014-0144709; cited from earlier work

Solubility [1] [mg/mL]	Hygroscopicity (%) ([2]; relative humidity 0.0%)	Hygroscopicity (%) ([2]; relative humidity 10.0%)	Hygroscopicity (%) ([2]; relative humidity 20.0%)	Hygroscopicity (%) ([2]; relative humidity 30.0%)	Hygroscopicity (%) ([2]; relative humidity 40.0%)	Hygroscopicity (%) ([2]; relative humidity 50.0%)	Hygroscopicity (%) ([2]; relative humidity 60.0%)	Hygroscopicity (%) ([2]; relative humidity 70.0%)	Hygroscopicity (%) ([2]; relative humidity 80.0%)	Hygroscopicity (%) ([2]; relative humidity 90.0%)	Solubility as compared with Compound 1 (in words) [1]	Hygroscopicity as compared with Compound 1 (in words) ([2]; summary of Table 2)	SMILES	Effect on the activity of protein kinase (in words) [3]
0.25	0.001	0.655	1.202	1.695	2.081	2.457	2.823	3.215	3.696	4.584	–	–	CN1CCC(Nc2nc(Nc3ccc(Oc4ccccc4)cc3)c3c(=O)[nH]cc(Br)c3n2)CC1 [Compound 1, 8-bromo-2-(1-methylpiperidin-4-ylamino)-4-(4-phenoxyphenylamino)pyrido[4,3-d]pyrimidin-5(6H)-one hydrochloride]	has an effect of inhibiting the activity of protein kinase
19.1	0.004	0.707	0.948	1.132	1.280	1.419	1.561	1.726	1.973	2.452	improved solubility	improved hygroscopicity	CN1CCC(Nc2nc(Nc3ccc(Oc4ccccc4)cc3)c3c(=O)[nH]cc(Br)c3n2)CC1 [Crystalline form (VI), 8-bromo-2-(1-methylpiperidin-4-ylamino)-4-(4-phenoxyphenylamino)pyrido[4,3-d]pyrimidin-5(6H)-one hydrochloride]	–
17.3	–	–	–	–	–	–	–	–	–	–	improved solubility	–	CN1CCC(Nc2nc(Nc3ccc(Oc4ccccc4)cc3)c3c(=O)[nH]cc(Br)c3n2)CC1 [Crystalline form (X), 8-bromo-2-(1-methylpiperidin-4-ylamino)-4-(4-phenoxyphenylamino)pyrido[4,3-d]pyrimidin-5(6H)-one hydrochloride]	–
